Data: paper PMC5321741, “Arylmethylamino steroids as antiparasitic agents” (Nature Communications, 2017)
Several values for one entry are separate records, joined by “and”; a condition that tells them apart may be missing. Equal values may be shown once. Read-outs that look alike come from different tables or passages of the source.

Columns and labels:
[1] = pH 7.5
Experimental: Spectrophotometric titration of 1o or 2o by Cu(II) and Fe(III)
Typically, an aliquot of 250 µl (or 500 µl) of a stock solution (~ 0.89 mM) of 1o or 2o was
dissolved in 2.5 (or 2.0 ml) of a mixed solvent made of 0.2 M sodium hepes buffer at pH 7.5
and DMSO (1:1 v/v) in a 1 cm Hellma optical quartz cell. The absorption spectrophotometric
titrations were carried out by adding microvolumes of a stock solution of the metallic cation (5
mM for Cu(II) or 7.36 mM for Fe(III). Aliquots of 5 µl of the stock metal solution were
successively added to the reaction mixture, and after each addition a UV-visible absorption
spectrum (250 nm < λ < 800 nm) was recorded with an Agilent Cary 5000 spectrophotometer. Special care was taken to ensure that equilibrium was attained after
each addition of the substrate. The association constants KL.M (L = 1o, 2o and M = Fe(III) or
Cu(II)) and the stoichiometry of the species at equilibrium were determined by processing the
spectrophotometric data with the Specfit program. The uncertainties on the log K values are given as 3 with  = standard deviation.

[2] = system: P. falciparum (strain 3D7); assay: 72 h 3H-hypoxanthine incorporation assay, asexual blood stages; assay type: cell-based, Plasmodium falciparum
[3] = cytotoxicity on HeLa cells; assay type: cell-based; settings: human, HeLa cells
Method in brief: (§1)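 K-562 and HeLa seeded at ∼10,000 cells/well; HeLa preincubated 48 h without compound before cytotoxicity testing. 72 h exposure at 37 °C, 5% CO2; K-562 counted by electronic cell analyzer, HUVEC and HeLa glutaraldehyde-fixed, methylene blue-stained, OD 660 nm; GI50 (antiproliferative) and CC50 (cytotoxicity) derived.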

K-562 = assay: antiproliferative activity on K-562 cells; assay type: cell-based; settings: Homo sapiens, K562, 72 h
Method in brief: as §1

haem = assay: ESI-MS collision-induced dissociation of haem adducts; assay type: binding; settings: 50 µM haem and 50 µM substrate; for DV50 (dissociation voltage at 50%) of haem adduct: ESI-CID, 20 V to 400 V; for Bottom plateau (adduct remaining at 400 V): fragmentor voltage 400 V
Method in brief: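 Equimolar haem and substrate (50 µM each) in H2O/CH3CN 5/95 with 0.1% formic acid, analysed by positive-mode ESI-CID with fragmentor 20–400 V in 20 V steps. DV50 is the voltage giving 50% dissociation of [haematin-drug]+ adducts.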

[4] = system: adult Schistosoma mansoni; assay: schistosome in vitro culture with inhibitor treatment; assay type: cell-based; settings: for morphological effects (confocal laser scanning microscopy): 5 μM, 6–13 days; for starting concentration with negative influence on worm physiology: pairing stability, egg production, survival, bright-field microscopy
HUVEC = assay: antiproliferative activity on HUVEC cells; assay type: cell-based; settings: Homo sapiens, HUVEC, 72 h
Method in brief: as §1

[5] = biological target: haem (FeIIIPPIX, π-π dimer); assay: spectrophotometric titration of haematin π-π dimer; assay type: binding; settings: absorption spectrophotometric titration, pH 7.5; read-out: Dissociation Constant KD of haematin-drug complex
[6] = system: Alternaria alternata JMRC:SF:09317; assay: spore inhibition test; assay type: cell-based; settings: 48 h; start concentration 1 mg/ml (1o, 2o), 100 µg/ml (Amphotericin B)
Experimental: (§2) The following test organisms were used for their susceptibility to compounds 1o and 2o: Alternaria alternata JMRC:SF:09317, Arthroderma benhamiae JMRC:ST:35888, Aspergillus fumigatus JMRC:Afum:00073=ATCC 46645, Aspergillus terreus JMRC:SF:06307, Candida albicans JMRC:ST:35864, Lichtheimia corymbifera JMRC:SF:09682, Penicillium chrysogenum JMRC:SF:10137, Rhizopus arrhizus (syn. R. oryzae) JMRC:SF:05857=ATCC 56536, CBS 112.07.
(§3) Fungi were grown on 3% malt extract solidified medium for 1 to 2 weeks at room temperature. Then the plates were washed with 7 ml sterile distilled water, and the spore suspension was filtered through 4 layers of sterile Miracloth (Kalbiochem, USA) to remove the hyphae. The concentration of the spore suspension was set to 2 × 10^4 conidia ml^−1 for the in vitro assays.
(§4) The spore inhibition assay took place in 96-well microplates (flat base). 50 μl of the prepared spore suspension was seeded and then mixed with 50 μl of the respective inhibitor substance. Tests were started with end concentrations of 1 mg ml^−1 and were then reduced in a minimum of 10 halving steps. Thus a 2 mg ml^−1 stock solution diluted in half ten times with solvent (distilled water, 2% DMSO in distilled water, or 2% DMF in distilled water) and each 50 μl was transferred to 50 μl spore suspension. For each test substance, 12 holes on the microtiter plate were filled. After 24 h incubation (25 °C), the germination of the spores was macroscopically and microscopically examined directly in the microtiter plate via measurement of the optical density and light microscopy using an inverse stereomicroscope with subsequent photodocumentation, respectively. If necessary, the plates were further incubated for another 24 or 48 h, depending on the extent of fungal germination.

[7] = system: Aspergillus terreus JMRC:SF:06307; assay: spore inhibition test; assay type: cell-based; settings: 48 h; start concentration 1 mg/ml (1o, 2o), 100 µg/ml (Amphotericin B)
Experimental: as §2, §3, §4

[8] = system: Aspergillus fumigatus JMRC:Afum:00073; assay: spore inhibition test; assay type: cell-based; settings: 48 h; start concentration 1 mg/ml (1o, 2o), 100 µg/ml (Amphotericin B)
Experimental: as §2, §3, §4

[9] = system: Candida albicans JMRC:ST:35864; assay: spore inhibition test; assay type: cell-based; settings: 48 h
Experimental: as §2, §3, §4

[10] = system: Penicillium chrysogenum JMRC:SF:10137; assay: spore inhibition test; assay type: cell-based; settings: 48 h
Experimental: as §2, §3, §4

[11] = system: Rhizopus arrhizus (syn. R. oryzae) JMRC:SF:05857; assay: spore inhibition test; assay type: cell-based; settings: 48 h; start concentration 1 mg/ml (1o, 2o), 100 µg/ml (Amphotericin B)
Experimental: as §2, §3, §4

[12] = system: Arthroderma benhamiae JMRC:ST:35888; assay: spore inhibition test; assay type: cell-based; settings: 72 h
Experimental: as §2, §3, §4

[13] = Plasmodium falciparum, 3D7, 72 h 3H-hypoxanthine incorporation, asexual blood stages, read-out: Antiplasmodial activity IC50 Pf (3D7)
[14] = start concentration 1 mg/ml (1o, 2o), 100 µg/ml (Amphotericin B)
[15] = start concentration 1 mg/ml, given in mg

Compound	stability constants log KLM of 1:1 complexes [1]	IC50 [2, 13] [µM]	CC50 at 72 h [3] [µM]	GI50 (K-562) [µM]	DV50 (dissociation voltage at 50%) of haem adduct (haem) [V]	Bottom plateau (adduct remaining at 400 V) (haem)	morphological effects (confocal laser scanning microscopy) [4]	starting concentration with negative influence on worm physiology [4] [μM]	GI50 (HUVEC) [µM]	Kd [5] [µM]	antifungal profile, 1st value = microscopic visualization-based observation, Alternaria alternata [6]	antifungal profile, 2nd value = optical density-based observation, Alternaria alternata [6]	antifungal profile, 1st value = microscopic visualization-based observation, Aspergillus terreus [7]	antifungal profile, 2nd value = optical density-based observation, Aspergillus terreus [7]	antifungal profile, 1st value = microscopic visualization-based observation, Aspergillus fumigatus [8]	antifungal profile, 2nd value = optical density-based observation, Aspergillus fumigatus [8]	antifungal profile, 2nd value = optical density-based observation, Candida albicans [9, 14]	antifungal profile, 2nd value = optical density-based observation, Penicillium chrysogenum [10, 14]	antifungal profile, 1st value = microscopic visualization-based observation, Rhizopus arrhizus [11]	antifungal profile, 2nd value = optical density-based observation, Rhizopus arrhizus [11]	further results
COc1ccc2c(c1)CCC1C2CC[C@@]2(C)C1CC[C@@H]2NCc1cc2ccccc2cc1O (stereo partly shown) [2o]	4.1-4.7	0.0066	> 113	2.5	280	21.7% and ~ 20%	the diameter of the testicular lobes was reduced, the ovary was disorganized	1	13.8	8.3	125	15,6	250	4	250	125	250	125	500	500	effect on survival ([4]; 10 µM): caused the death of the parasites within a week; time to death of worms ([4]; 10 µM): ≤ 3 days; time to death of worms ([4]; 20 µM): 1 days; antifungal profile, 1st value = microscopic visualization-based observation, Candida albicans [9, 14]: 500; antifungal profile, 1st value = microscopic visualization-based observation, Penicillium chrysogenum [10, 14]: 250; antifungal profile, 1st value = microscopic visualization-based observation, Arthroderma benhamiae [12, 14]: 31.2; antifungal profile, 2nd value = optical density-based observation, Arthroderma benhamiae [12, 14]: 2
COc1ccc2c(c1)CCC1C2CC[C@@]2(C)C1CC[C@H]2NCc1cc2ccccc2cc1O (stereo partly shown) [1o]	4.1-4.7	~0.005	> 113	5	290	~ 20% and 20%	swellings and invaginations occurred at the tegument	5	108	3.3	500	250	250	125	250	250	500	125	500	500	IC50 ([2]; 72 h 3H-hypoxanthine incorporation, asexual blood stages, read-out: Antiplasmodial activity IC50 Pf (3D7)): 0.0041 µM; IC50 ([2]; Plasmodium falciparum, 3D7, chloroquine-sensitive and resistant P. falciparum parasites, read-out: IC50 against intraerythrocytic stages): 0.001 to 0.005 µM; reduction of egg production and motility ([4]; 10 µM, starting from days 1 and 2): about 75%; effect on survival ([4]; 20 µM, from day 2 on): nearly all worms were dead; antifungal profile, 1st value = microscopic visualization-based observation, Candida albicans [9, 15]: 1 mg; antifungal profile, 1st value = microscopic visualization-based observation, Penicillium chrysogenum [10, 15]: 1 mg; antifungal profile, 1st value = microscopic visualization-based observation, Arthroderma benhamiae [12, 14]: 500; antifungal profile, 2nd value = optical density-based observation, Arthroderma benhamiae [12, 15]: 1 mg
